Test results taken from BindingDB's records for doi:10.1021/jm100812a (Boehringer Ingelheim Pharma, 2010).

Columns and labels:
TGF-beta receptor type-1 [1] = biological target: T1, TGF-beta receptor type-1 (Homo sapiens, UniProt P36897); assay: Inhibition of TGFbeta receptor
T1 sequence (P36897 whole entry): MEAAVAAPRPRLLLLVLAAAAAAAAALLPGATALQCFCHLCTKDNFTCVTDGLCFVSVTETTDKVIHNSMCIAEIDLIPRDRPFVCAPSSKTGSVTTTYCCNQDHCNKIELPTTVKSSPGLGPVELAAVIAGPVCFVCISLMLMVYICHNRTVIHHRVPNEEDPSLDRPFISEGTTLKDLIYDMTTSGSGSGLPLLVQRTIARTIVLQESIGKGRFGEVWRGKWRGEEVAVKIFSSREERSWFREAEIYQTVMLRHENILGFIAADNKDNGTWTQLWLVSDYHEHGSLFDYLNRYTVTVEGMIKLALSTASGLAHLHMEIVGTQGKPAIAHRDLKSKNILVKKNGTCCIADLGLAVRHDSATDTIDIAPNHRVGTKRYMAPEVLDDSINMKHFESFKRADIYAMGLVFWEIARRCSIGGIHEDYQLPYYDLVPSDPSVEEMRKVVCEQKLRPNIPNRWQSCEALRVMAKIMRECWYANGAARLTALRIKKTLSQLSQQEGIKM

TGF-beta receptor type-1 [2] = biological target: T1, TGF-beta receptor type-1; assay: Inhibition of TGFbeta receptor in human HaCaT cells assessed as Smad phosphorylation by ELISA
[3] = biological target: Platelet-derived growth factor receptor alpha (Homo sapiens, UniProt P16234); assay: Inhibition of PDGFRalpha
[4] = biological target: Activin receptor-like kinase 1, ACVRL1 (Homo sapiens) (UniProt P37023); assay: Inhibition of ALK1
Chain of Activin receptor-like kinase 1, ACVRL1 (Homo sapiens) (P37023 whole entry, looked up): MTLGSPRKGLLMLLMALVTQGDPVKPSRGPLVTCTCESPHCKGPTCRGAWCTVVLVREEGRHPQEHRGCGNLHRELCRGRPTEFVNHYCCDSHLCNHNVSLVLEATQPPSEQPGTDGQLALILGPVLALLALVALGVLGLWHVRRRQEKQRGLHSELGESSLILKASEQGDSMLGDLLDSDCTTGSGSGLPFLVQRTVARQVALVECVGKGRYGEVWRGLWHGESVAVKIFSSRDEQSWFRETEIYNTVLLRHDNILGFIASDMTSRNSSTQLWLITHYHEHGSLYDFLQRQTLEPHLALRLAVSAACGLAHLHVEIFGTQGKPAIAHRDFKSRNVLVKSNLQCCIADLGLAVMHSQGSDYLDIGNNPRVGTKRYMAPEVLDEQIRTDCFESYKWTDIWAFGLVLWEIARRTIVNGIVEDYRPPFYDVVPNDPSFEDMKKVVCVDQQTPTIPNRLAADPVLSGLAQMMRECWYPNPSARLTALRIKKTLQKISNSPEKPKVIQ

Chain of Platelet-derived growth factor receptor alpha (P16234 whole entry): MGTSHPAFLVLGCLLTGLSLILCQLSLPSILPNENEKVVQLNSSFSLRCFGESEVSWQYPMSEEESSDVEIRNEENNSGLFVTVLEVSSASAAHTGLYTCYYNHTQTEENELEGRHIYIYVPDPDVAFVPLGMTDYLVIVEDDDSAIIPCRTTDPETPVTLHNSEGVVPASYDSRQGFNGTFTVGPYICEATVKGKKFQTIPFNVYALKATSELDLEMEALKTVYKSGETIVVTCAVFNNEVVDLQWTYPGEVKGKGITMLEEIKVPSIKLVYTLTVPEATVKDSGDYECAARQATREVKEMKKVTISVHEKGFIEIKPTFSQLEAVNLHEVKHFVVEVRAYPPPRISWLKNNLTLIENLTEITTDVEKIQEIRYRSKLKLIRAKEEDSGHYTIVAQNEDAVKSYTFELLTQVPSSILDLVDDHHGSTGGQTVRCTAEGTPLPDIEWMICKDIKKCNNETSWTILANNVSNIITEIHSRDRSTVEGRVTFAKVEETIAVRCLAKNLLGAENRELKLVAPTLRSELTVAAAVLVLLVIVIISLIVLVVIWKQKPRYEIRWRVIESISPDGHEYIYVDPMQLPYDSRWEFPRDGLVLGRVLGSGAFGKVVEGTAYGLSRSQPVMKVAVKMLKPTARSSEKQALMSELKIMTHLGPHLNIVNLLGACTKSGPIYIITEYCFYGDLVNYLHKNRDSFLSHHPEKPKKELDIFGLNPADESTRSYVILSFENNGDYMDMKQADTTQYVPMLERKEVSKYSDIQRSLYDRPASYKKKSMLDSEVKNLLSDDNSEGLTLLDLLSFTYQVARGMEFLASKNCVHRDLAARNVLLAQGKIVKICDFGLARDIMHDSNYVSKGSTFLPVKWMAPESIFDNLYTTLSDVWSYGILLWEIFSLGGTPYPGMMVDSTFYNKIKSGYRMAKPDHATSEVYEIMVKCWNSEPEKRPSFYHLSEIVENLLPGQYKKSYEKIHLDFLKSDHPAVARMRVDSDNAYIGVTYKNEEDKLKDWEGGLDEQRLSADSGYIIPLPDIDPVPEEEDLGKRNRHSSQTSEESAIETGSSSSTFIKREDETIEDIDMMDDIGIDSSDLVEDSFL

| SMILES | IC50 (TGF-beta receptor type-1 [1]) [µM] | EC50 (TGF-beta receptor type-1 [2]) [µM] | IC50 [3] [µM] | IC50 [4] [µM] |
| --- | --- | --- | --- | --- |
| CCN(C)C(=O)c1ccc2c(c1)NC(=O)C2C(=NC1CCCCC1)c1ccccc1 (configuration not stated) [(Z)-3-((cyclohexylamino)(phenyl)methylene)-N-ethyl-N-methyl-2-oxoindoline-6-carboxamide] | > 50 | > 10 | > 5 | – |
| CCN(C)C(=O)c1ccc2c(c1)NC(=O)/C2=C(\Nc1ccc(CN2CCCCC2)cc1)c1ccccc1 | – | – | – | 4 |
| CCN(C)C(=O)c1ccc2c(c1)NC(=O)C2C(=NC1CCN(C)CC1)c1ccccc1 (configuration not stated) [(Z)-N-ethyl-N-methyl-3-((1-methylpiperidin-4-ylamino)(phenyl)methylene)-2-oxoindoline-6-carboxamide] | > 50 | > 10 | > 5 | – |
